Data as given in patent US9695155B2, “Herbicidal substituted pyrimidinyloxy benzene compounds” (E. I. DU PONT DE NEMOURS AND COMPANY, priority 2013, dated 2017).

What was measured:
late watergrass = assay: Test G flood (paddy water application); assay type: in vivo, Echinochloa oryzicola; conditions: after 21 days, scale 0 to 100, 0 no effect, 100 complete control
Text: (§1) Three plastic pots (ca. 16-cm diameter) per rate were partially filled with sterilized Tama silt loam soil comprising a 35:50:15 ratio of sand, silt and clay and 2.6% organic matter. Separate plantings for each of the three pots were as follows. Seeds from the U.S. of monochoria (Monochoria vaginalis), sedge, umbrella (small-flower umbrella sedge, Cyperus difformis), hardstem bulrush (Scirpus juncoides), and redstem (purple redstem, Ammannia coccinea), were planted into one 16-cm pot for each rate. Seeds from the U.S. of rice flatsedge (Cyperus iria), bearded sprangletop (Leptochloa fascicularis), one stand of 9 or 10 water seeded rice seedlings (Oryza sativa cv. ‘Japonica—M202’), and two stands of 3 or 4 transplanted rice seedlings (Oryza sativa cv. ‘Japonica—M202’) were planted into one 16-cm pot for each rate. Seeds from the U.S. of barnyardgrass (Echinochloa crus-galli), and late watergrass (Echinochloa oryzicola) were planted into one 16-cm pot for each rate. Plantings were sequential so that crop and weed species were at the 2.0 to 2.5-leaf stage at time of treatment.
(§2) Potted plants were grown in a greenhouse with day/night temperature settings of 30/27° C., and supplemental balanced lighting was provided to maintain a 16-hour photoperiod. Test pots were maintained in the greenhouse until test completion.
(§3) At time of treatment, test pots were flooded to 3 cm above the soil surface, treated by application of test compounds directly to the paddy water, and then maintained at that water depth for the duration of the test. Effects of treatments on rice and weeds were visually evaluated by comparison to untreated controls after 21 days. Plant response ratings, summarized in Table G, are based on a scale of 0 to 100 where 0 is no effect and 100 is complete control. A dash (-) response means no test result.

barnyardgrass [1] = assay: Test G flood (paddy water application); assay type: in vivo, Echinochloa crus-galli; conditions: after 21 days, scale 0 to 100, 0 no effect, 100 complete control
Text: as §1, §2, §3

bearded sprangletop = assay: Test G flood (paddy water application); assay type: in vivo, Leptochloa fascicularis; conditions: after 21 days, scale 0 to 100, 0 no effect, 100 complete control
Text: as §1, §2, §3

rice flatsedge = assay: Test G flood (paddy water application); assay type: in vivo, Cyperus iria; conditions: after 21 days, scale 0 to 100, 0 no effect, 100 complete control
Text: as §1, §2, §3

sedge, umbrella = assay: Test G flood (paddy water application); assay type: in vivo, Cyperus difformis; conditions: after 21 days, scale 0 to 100, 0 no effect, 100 complete control
Text: as §1, §2, §3

hardstem bulrush = assay: Test G flood (paddy water application); assay type: in vivo, Scirpus juncoides; conditions: after 21 days, scale 0 to 100, 0 no effect, 100 complete control
Text: as §1, §2, §3

monochoria = assay: Test G flood (paddy water application); assay type: in vivo, Monochoria vaginalis; conditions: after 21 days, scale 0 to 100, 0 no effect, 100 complete control
Text: as §1, §2, §3

signalgrass = assay: Test F preemergence; assay type: in vivo, Brachiaria platyphylla; conditions: 21 days, scale 0 to 100
Text: (§4) Seeds of plant species selected from bermudagrass (Cynodon dactylon), surinam grass (Brachiaria decumbens), large (Lg) crabgrass (Digitaria sanguinalis), crabgrass, naked (naked crabgrass, Digitaria nuda), foxtail, green (green foxtail, Setaria viridis), johnsongrass (Sorghum halepense), kochia (Kochia scoparia), morningglory (pitted morningglory, Ipomoea lacunosa), nutsedge, purple (purple nutsedge, Cyperus rotundus), ragweed (common ragweed, Ambrosia elatior), mustard, black (black mustard, Brassica nigra), guineagrass (Panicum maximum), dallisgrass (Paspalum dilatatum), barnyardgrass (Echinochloa crus-galli), sandbur (southern sandbur, Cenchrus echinatus), sowthistle (common sowthistle, Sonchus oleraceous), Italian ryegrass (Lolium multiflorum), signalgrass (broadleaf signalgrass, Brachiaria platyphylla), dayflower (Virginia (VA) dayflower, Commelina virginica), bluegrass (annual bluegrass, Poa annua), quackgrass (Elytrigia repens), mallow (common mallow, Malva sylvestris), buckwheat, wild (wild buckwheat, Polygonum convolvulus), leafy spurge (Euphorbia esula), chickweed (common chickweed, Stellaria media), wild poinsettia (Euphorbia heterophylla), and pigweed (Amaranthus retroflexus) were planted into a blend of loam soil and sand and treated preemergence with test chemicals formulated in a non-phytotoxic solvent mixture which included a surfactant.
(§5) Treated plants and controls were maintained in a greenhouse for 21 days, after which time all species were compared to controls and visually evaluated. Plant response ratings, summarized in Table F, are based on a scale of 0 to 100 where 0 is no effect and 100 is complete control. A dash (-) response means no test result.

bermudagrass = assay: Test F preemergence; assay type: in vivo, Cynodon dactylon; conditions: 21 days, scale 0 to 100
Text: as §4, §5

nutsedge, purple = assay: Test F preemergence; assay type: in vivo, Cyperus rotundus; conditions: 21 days, scale 0 to 100
Text: as §4, §5

pigweed = assay: Test F preemergence; assay type: in vivo, Amaranthus retroflexus; conditions: 21 days, scale 0 to 100
Text: as §4, §5

barnyardgrass [2] = assay: Test F preemergence; assay type: in vivo, Echinochloa crus-galli; conditions: 21 days, scale 0 to 100
Text: as §4, §5

guineagrass = assay: Test F preemergence; assay type: in vivo, Panicum maximum; conditions: 21 days, scale 0 to 100
Text: as §4, §5

large (Lg) crabgrass = assay: Test F preemergence; assay type: in vivo, Digitaria sanguinalis; conditions: 21 days, scale 0 to 100
Text: as §4, §5

surinam grass = assay: Test F preemergence; assay type: in vivo, Brachiaria decumbens; conditions: 21 days, scale 0 to 100
Text: as §4, §5

FC(F)(F)c1cnn(-c2ccccc2Oc2ncc(Cl)cn2)c1 [Compound 16]
Plant response rating, Watergrass, Late (late watergrass; 32 g ai/ha): 0
Plant response rating, Watergrass, Late (late watergrass; 64 g ai/ha): 0
Plant response rating, Watergrass, Late (late watergrass; 125 g ai/ha): 0
Plant response rating, Watergrass, Late (late watergrass; 250 g ai/ha): 80
Plant response rating, Barnyardgrass (barnyardgrass [1]; 32 g ai/ha): 0
Plant response rating, Barnyardgrass (barnyardgrass [1]; 64 g ai/ha): 40
Plant response rating, Barnyardgrass (barnyardgrass [1]; 125 g ai/ha): 100
Plant response rating, Barnyardgrass (barnyardgrass [1]; 250 g ai/ha): 100
Plant response rating, Sprangletop, Brdd. (bearded sprangletop; 32 g ai/ha): 65
Plant response rating, Sprangletop, Brdd. (bearded sprangletop; 64 g ai/ha): 100
Plant response rating, Sprangletop, Brdd. (bearded sprangletop; 125 g ai/ha): 100
Plant response rating, Sprangletop, Brdd. (bearded sprangletop; 250 g ai/ha): 100
Plant response rating, Flatsedge, Rice (rice flatsedge; 32 g ai/ha): 40
Plant response rating, Flatsedge, Rice (rice flatsedge; 64 g ai/ha): 85
Plant response rating, Flatsedge, Rice (rice flatsedge; 125 g ai/ha): 100
Plant response rating, Flatsedge, Rice (rice flatsedge; 250 g ai/ha): 100
Plant response rating, Sedge, Umbrella (sedge, umbrella; 32 g ai/ha): 0
Plant response rating, Sedge, Umbrella (sedge, umbrella; 64 g ai/ha): 60
Plant response rating, Sedge, Umbrella (sedge, umbrella; 125 g ai/ha): 100
Plant response rating, Sedge, Umbrella (sedge, umbrella; 250 g ai/ha): 100
Plant response rating, Bulrush, Hardstem (hardstem bulrush; 32 g ai/ha): 40
Plant response rating, Bulrush, Hardstem (hardstem bulrush; 64 g ai/ha): 50
Plant response rating, Bulrush, Hardstem (hardstem bulrush; 125 g ai/ha): 65
Plant response rating, Bulrush, Hardstem (hardstem bulrush; 250 g ai/ha): 80
Plant response rating, Monochoria (monochoria; 32 g ai/ha): 95
Plant response rating, Monochoria (monochoria; 64 g ai/ha): 95
Plant response rating, Monochoria (monochoria; 125 g ai/ha): 100
Plant response rating, Monochoria (monochoria; 250 g ai/ha): 100

N#Cc1cccc(Oc2ncc(Cl)cn2)c1-n1cc(C(F)(F)F)cn1 [Compound 58, 3-[(5-chloro-2-pyrimidinyl)oxy]-2-[4-(trifluoromethyl)-1H-pyrazol-1-yl]benzonitrile]
Plant response rating, Signalgrass (signalgrass; 16 g ai/ha): 95
Plant response rating, Signalgrass (signalgrass; 31 g ai/ha): 100
Plant response rating, Signalgrass (signalgrass; 62 g ai/ha): 100
Plant response rating, Signalgrass (signalgrass; 125 g ai/ha): 100
Plant response rating, Signalgrass (signalgrass; 250 g ai/ha): 100
Plant response rating, Bermudagrass (bermudagrass; 16 g ai/ha): 95
Plant response rating, Bermudagrass (bermudagrass; 31 g ai/ha): 100
Plant response rating, Bermudagrass (bermudagrass; 62 g ai/ha): 100
Plant response rating, Bermudagrass (bermudagrass; 125 g ai/ha): 100
Plant response rating, Bermudagrass (bermudagrass; 250 g ai/ha): 100
Plant response rating, Nutsedge, Purple (nutsedge, purple; 16 g ai/ha): 0
Plant response rating, Nutsedge, Purple (nutsedge, purple; 31 g ai/ha): 60
Plant response rating, Nutsedge, Purple (nutsedge, purple; 62 g ai/ha): 40
Plant response rating, Nutsedge, Purple (nutsedge, purple; 125 g ai/ha): 70
Plant response rating, Nutsedge, Purple (nutsedge, purple; 250 g ai/ha): 80
Plant response rating, Pigweed (pigweed; 16 g ai/ha): 100
Plant response rating, Pigweed (pigweed; 31 g ai/ha): 100
Plant response rating, Pigweed (pigweed; 62 g ai/ha): 100
Plant response rating, Pigweed (pigweed; 125 g ai/ha): 100
Plant response rating, Pigweed (pigweed; 250 g ai/ha): 100
Plant response rating, Barnyardgrass (barnyardgrass [2]; 16 g ai/ha): 70
Plant response rating, Barnyardgrass (barnyardgrass [2]; 31 g ai/ha): 100
Plant response rating, Barnyardgrass (barnyardgrass [2]; 62 g ai/ha): 100
Plant response rating, Barnyardgrass (barnyardgrass [2]; 125 g ai/ha): 100
Plant response rating, Barnyardgrass (barnyardgrass [2]; 250 g ai/ha): 100
Plant response rating, Guineagrass (guineagrass; 16 g ai/ha): 100
Plant response rating, Guineagrass (guineagrass; 31 g ai/ha): 100
Plant response rating, Guineagrass (guineagrass; 62 g ai/ha): 100
Plant response rating, Guineagrass (guineagrass; 125 g ai/ha): 100
Plant response rating, Guineagrass (guineagrass; 250 g ai/ha): 100
Plant response rating, Crabgrass, Large (large (Lg) crabgrass; 16 g ai/ha): 100
Plant response rating, Crabgrass, Large (large (Lg) crabgrass; 31 g ai/ha): 100
Plant response rating, Crabgrass, Large (large (Lg) crabgrass; 62 g ai/ha): 100
Plant response rating, Crabgrass, Large (large (Lg) crabgrass; 125 g ai/ha): 100
Plant response rating, Crabgrass, Large (large (Lg) crabgrass; 250 g ai/ha): 100
Plant response rating, Surinam Grass (surinam grass; 16 g ai/ha): 25
Plant response rating, Surinam Grass (surinam grass; 31 g ai/ha): 60
Plant response rating, Surinam Grass (surinam grass; 62 g ai/ha): 98
Plant response rating, Surinam Grass (surinam grass; 125 g ai/ha): 100
Plant response rating, Surinam Grass (surinam grass; 250 g ai/ha): 100

FC(F)(F)c1cnn(-c2ccccc2Oc2ncc(Br)cn2)c1 [Compound 18, 5-bromo-2-[2-[4-(trifluoromethyl)-1H-pyrazol-1-yl]phenoxy]pyrimidine]
Plant response rating, Watergrass, Late (late watergrass; 32 g ai/ha): 0
Plant response rating, Watergrass, Late (late watergrass; 64 g ai/ha): 0
Plant response rating, Watergrass, Late (late watergrass; 125 g ai/ha): 0
Plant response rating, Watergrass, Late (late watergrass; 250 g ai/ha): 70
Plant response rating, Barnyardgrass (barnyardgrass [1]; 32 g ai/ha): 0
Plant response rating, Barnyardgrass (barnyardgrass [1]; 64 g ai/ha): 20
Plant response rating, Barnyardgrass (barnyardgrass [1]; 125 g ai/ha): 35
Plant response rating, Barnyardgrass (barnyardgrass [1]; 250 g ai/ha): 100
Plant response rating, Sprangletop, Brdd. (bearded sprangletop; 32 g ai/ha): 70
Plant response rating, Sprangletop, Brdd. (bearded sprangletop; 64 g ai/ha): 80
Plant response rating, Sprangletop, Brdd. (bearded sprangletop; 125 g ai/ha): 90
Plant response rating, Sprangletop, Brdd. (bearded sprangletop; 250 g ai/ha): 100
Plant response rating, Flatsedge, Rice (rice flatsedge; 32 g ai/ha): 30
Plant response rating, Flatsedge, Rice (rice flatsedge; 64 g ai/ha): 75
Plant response rating, Flatsedge, Rice (rice flatsedge; 125 g ai/ha): 100
Plant response rating, Flatsedge, Rice (rice flatsedge; 250 g ai/ha): 100
Plant response rating, Sedge, Umbrella (sedge, umbrella; 32 g ai/ha): 0
Plant response rating, Sedge, Umbrella (sedge, umbrella; 64 g ai/ha): 20
Plant response rating, Sedge, Umbrella (sedge, umbrella; 125 g ai/ha): 35
Plant response rating, Sedge, Umbrella (sedge, umbrella; 250 g ai/ha): 100
Plant response rating, Bulrush, Hardstem (hardstem bulrush; 32 g ai/ha): 0
Plant response rating, Bulrush, Hardstem (hardstem bulrush; 64 g ai/ha): 0
Plant response rating, Bulrush, Hardstem (hardstem bulrush; 125 g ai/ha): 0
Plant response rating, Bulrush, Hardstem (hardstem bulrush; 250 g ai/ha): 85
Plant response rating, Monochoria (monochoria; 32 g ai/ha): 95
Plant response rating, Monochoria (monochoria; 64 g ai/ha): 95
Plant response rating, Monochoria (monochoria; 125 g ai/ha): 100
Plant response rating, Monochoria (monochoria; 250 g ai/ha): 100
